Measurements as given in patent US20210395210A1, “INHIBITION OF BACTERIAL CHAPERONIN SYSTEMS” (THE TRUSTEES OF INDIANA UNIVERSITY, priority 2018, published 2021).
Where two headings read alike, the source gives them in different places.

Key:
in vitro [1] = details: human
Method: (§1) HEK 293 cells were maintained in MEM medium (Corning Cellgro, 10-009 CV) supplemented with 10% FBS (Sigma, F2242). […] Cells at 80% confluence were harvested and diluted in growth medium, then 45 μL of the THLE-3 cells (1,500 cells/well) or HEK 293 cells (1,500 cells/well) were dispensed per well, and plates were sealed with “Breathe Easy” oxygen permeable membranes (Diversified Biotech) and incubated at 37° C., 5% CO2, for 24 h.

native MDH = target: T1, native MDH (Sus scrofa, UniProt P00346); test: Counter-screen for inhibition of native MDH enzymatic activity; type: biochemical, pig
T1 construct: soluble pig heart MDH from Roche, product #10127248001; purchased Roche 10127248001; host or cells: pig heart
T1 sequence (P00346 25-338): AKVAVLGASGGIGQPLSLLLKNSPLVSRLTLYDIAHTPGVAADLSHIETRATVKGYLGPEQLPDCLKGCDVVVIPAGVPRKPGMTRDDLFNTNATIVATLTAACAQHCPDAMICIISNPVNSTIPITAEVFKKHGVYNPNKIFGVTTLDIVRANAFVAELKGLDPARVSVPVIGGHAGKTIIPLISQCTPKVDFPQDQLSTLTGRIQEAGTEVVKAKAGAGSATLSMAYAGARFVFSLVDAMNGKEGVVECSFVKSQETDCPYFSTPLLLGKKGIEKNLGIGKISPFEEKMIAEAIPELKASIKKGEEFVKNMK
Method: Reagent Preparations & Assay Protocol: This assay was performed as described above for the GroEL/ES-dMDH refolding assay; however, the assay protocol differed in the sequence of compound addition to the assay plates. The refolding reactions were allowed to proceed for 45 min at 37° C. in the absence of test compounds (complete refolding of MDH occurs), then quenched with the EDTA stock. Compounds were then pin-transferred into the plates after the EDTA quenching step; thus, compounds effects are only possible by inhibiting the fully-refolded MDH reporter substrate. […] A340 nm measurements were recorded at 0.5 minutes (start point) and at successive time points until the amount of NADH consumed reached ˜90% (end point, generally between 20-35 minutes). Compounds were tested in 8-point, 3-fold dilution series (62.5 μM to 29 nM during the reporter reaction) in clear, flat-bottom 384-well microtiter plates. DMSO was used as a negative control, and previously discovered native MDH inhibitors were used as positive controls. […] Results presented represent the averages of IC50 values obtained from at least quadriplicate (duplicate of duplicate) replicates.

in vitro [2] = details: human; remark: listed apart in the source
Method: as §1

[3] = system: Enterobacter cloacae (ATCC 13047); test: Bacterial proliferation assay, E. cloacae; type: cell-based
Source text: (§2) Bacterial Strains: Enterococcus faecium—(Orla-Jensen) Schleifer and Kilpper-Balz strain NCTC 7171 (ATCC 19434); Drug sensitive Staphylococcus aureus—Rosenbranch strain Seattle 1945 (ATCC 25923); Methicillin resistant S. aureus (MRSA)—Rosenbach strain HPV107 (ATCC BAA-44); Klebsiella Pneumonia—(Schroeter) Trevisan strain NCTC 9633 (ATCC 13883); Acinetobacter baumannii—Bouvet and Grimont strain 2208 (ATCC 19606); Pseudomonas aeruginosa—(Schroeter) Migula strain NCTC 10332 (ATCC 10145); Enterobacter cloacae—E. cloacae, subsp. cloacae (Jordan) Hormaeche and Edwards strain CDC 442-68 (ATCC 13047).
(§3) Growth Media: All bacteria were grown in Brain Heart Infusion (BHI) broth/agar (Becton, Dickinson and Company). All liquid cultures were grown in BHI media supplemented with 25 mg/L Ca^2+ and 12.5 mg/L Mg^2+ to mimic free physiological concentrations of these cations. A 10 mg/mL Ca^2+ stock solution was prepared by dissolving 3.68 g of CaCl2.2H2O in 100 mL of deionized water, and a 10 mg/mL Mg^2+ stock solution was prepared by dissolving 8.36 g of MgCl2.6H2O in 100 mL deionized water. Both stock solutions were filter-sterilized using 0.2 μm pore size cellulose-acetate filters. 2.5 mL of the sterile 10 mg/mL Ca^2+ stock and 1.25 mL of the sterile 10 mg/mL Mg^2+ stock solutions were added per 1 L of autoclaved BHI medium to obtain 25 mg/L Ca^2+ and 12.5 mg/L Mg^2+ ions, respectively.
(§4) General Assay Protocol: Stock bacterial cultures were streaked onto BHI agar plates and grown overnight at 37° C. Fresh aliquots of broth were inoculated with single bacterial colonies and the cultures were grown overnight at 37° C. with shaking (240 rpm) in cation adjusted BHI media. The following morning, the overnight cultures were sub-cultured (1:5 dilution) into fresh aliquots of cation adjusted BHI media and grown at 37° C. for 1-2 hours with shaking. After 2 h, cultures were diluted into fresh media to achieve final OD600 readings of 0.017. Aliquots of these diluted cultures (30 μL) were added to clear, flat-bottom, 384-well polystyrene plates that were stamped with 0.5 μL of test compounds in 20 μL media. […] Plates were sealed with “Breathe Easy” oxygen permeable membranes (Diversified Biotech) and left to incubate at 37° C. without shaking (stagnant assay). OD600 nm readings were taken at either 6-8 h (S. aureus, MRSA, K. pneumonia, E. cloacae, and P. aeruginosa) or 24 h (E. faecium and A. baumannii). A second set of baseline control plates were prepared analogously, but without any bacteria added, to correct for possible compound absorbance and/or precipitation. Plates were then read at 600 nm using a Molecular Devices SpectraMax Plus384 microplate reader. […] Results presented represent the averages of EC50 values obtained from at quadriplicate (duplicate of duplicate) replicates.

[4] = system: Methicillin resistant S. aureus (MRSA) (ATCC BAA-44); test: Bacterial proliferation assay, MRSA; type: cell-based, Staphylococcus aureus
Source text: as §2, §3, §4

[5] = system: Acinetobacter baumannii (ATCC 19606); test: Bacterial proliferation assay, A. baumannii; type: cell-based
Source text: as §2, §3, §4

[6] = log of IC50 (μM scale), with standard deviation, read-out: log(IC50) Native MDH Reporter (converted)
[7] = read-out: Biochemical Assay IC50 Native MDH Reporter
[8] = ATCC13047, OD600 at 6-8 h, read-out: Bacterial Proliferation EC50 E. cloacae
[9] = ATCC13047, log of EC50 (μM scale), with standard deviation, read-out: log(EC50) Bacterial Proliferation Assay E. cloacae (converted)
[10] = Staphylococcus aureus, MRSA, log of EC50 (μM scale), with standard deviation, read-out: log(EC50) Bacterial Proliferation Assay S. aureus Resistant (converted)
[11] = ATCC19606, OD600 at 24 h, read-out: Bacterial Proliferation EC50 A. baumannii
[12] = ATCC19606, log of EC50 (μM scale), with standard deviation, read-out: log(EC50) Bacterial Proliferation Assay A. baumannii (converted)
[13] = ATCC13047, read-out: Bacterial Proliferation EC50 E. cloacae
[14] = ATCC13047, read-out: log(EC50) Bacterial Proliferation Assay E. cloacae (converted)
[15] = Staphylococcus aureus, read-out: log(EC50) Bacterial Proliferation Assay S. aureus Resistant (converted)
[16] = ATCC19606, 24 h, read-out: Bacterial Proliferation EC50 A. baumannii
[17] = ATCC19606, read-out: log(EC50) Bacterial Proliferation Assay A. baumannii (converted)
[18] = Staphylococcus aureus, read-out: Bacterial Proliferation EC50 S. aureus Resistant

| SMILES | CC50 at 48 h (in vitro [1]) | IC50 (native MDH; [6]) | IC50 (native MDH; [7]) | CC50 at 48 h (in vitro [2]) | EC50 [3, 8] | EC50 [3, 9] | EC50 [4, 10] | EC50 [5, 11] | EC50 [5, 12] | EC50 [3, 13] | EC50 [3, 14] | EC50 [4, 15] | EC50 [5, 16] | EC50 [5, 17] | other results |
| --- | --- | --- | --- | --- | --- | --- | --- | --- | --- | --- | --- | --- | --- | --- | --- |
| O=C(Nc1ccccc1)c1cccc(Br)c1 [Compound 27, 3-Bromo-N-phenylbenzamide] | > 100 µM | > 63.1 µM | > 63 µM | > 100 µM | > 100 µM | > 100 µM | > 100 µM | > 100 µM | > 100 µM |  |  |  |  |  |  |
| O=C(Nc1ccc(Oc2ccc(Cl)cc2)c(Cl)c1)c1cc(I)cc(I)c1O [Rafoxanide, rafoxanide, reference compound] | > 100 µM |  |  | 24 µM |  |  |  |  |  | 40 µM | 40.7 µM | 0.347 µM | 31 µM | 30.9 µM | log(IC50) Native MDH Reporter (native MDH; log of IC50 (μM scale), with standard deviation): 1.40 ± 0.34; EC50 ([4]; MRSA, OD600 at 6-8 h, read-out: Bacterial Proliferation EC50 S. aureus Resistant): 0.34 µM |
| COc1ccc(Br)cc1C(=O)Nc1cccc(Cl)c1 [Compound 39, 5-Bromo-N-(3-chlorophenyl)-2-methoxybenzamide] | > 100 µM | > 63.1 µM | > 63 µM | 93.3 µM | > 100 µM | > 100 µM | > 100 µM | > 100 µM | > 100 µM |  |  |  |  |  |  |
| COc1c(Br)cc(Br)cc1C(=O)Nc1ccc(Sc2nc3ccccc3s2)c(Cl)c1 [Compound 29, N-(4-(Benzo[d]thiazol-2-ylthio)-3-chlorophenyl)-3,5-dibromo-2-methoxybenzamide] | > 100 µM | > 63.1 µM | > 63 µM | > 100 µM | > 100 µM | > 100 µM | > 100 µM | > 100 µM | > 100 µM |  |  |  |  |  |  |
| CN[C@H](CC(C)C)C(=O)N[C@H]1C(=O)N[C@@H](CC(N)=O)C(=O)N[C@H]2C(=O)N[C@H]3C(=O)N[C@H](C(=O)N[C@H](C(=O)O)c4cc(O)cc(O)c4-c4cc3ccc4O)[C@H](O)c3ccc(c(Cl)c3)Oc3cc2cc(c3O[C@@H]2O[C@H](CO)[C@@H](O)[C@H](O)[C@H]2O[C@H]2C[C@](C)(N)[C@H](O)[C@H](C)O2)Oc2ccc(cc2Cl)[C@H]1O [Vancomycin, vancomycin, reference compound] | > 100 µM |  |  | > 100 µM |  |  |  |  |  | > 100 µM | > 100 µM | 0.513 µM | > 100 µM | > 100 µM | IC50 (native MDH; Biochemical Assay IC50 Native MDH Reporter): > 63 µM; IC50 (native MDH; log(IC50) Native MDH Reporter, log of IC50 (μM scale), with standard deviation): > 63.1 µM; EC50 [4, 18]: 0.52 µM |
| COc1c(Br)cccc1C(=O)Nc1ccccc1 [Compound 42, 3-Bromo-2-methoxy-N-phenylbenzamide] | > 100 µM | > 63.1 µM | > 63 µM | > 100 µM | > 100 µM | > 100 µM | > 100 µM | > 100 µM | > 100 µM |  |  |  |  |  |  |
| O=C(Nc1ccccc1)c1cc(Br)cc(Br)c1O [Compound 13, 3,5-Dibromo-2-hydroxy-N-phenylbenzamide] | 33.9 µM | 50.1 µM | 51 µM |  |  |  |  |  |  | > 100 µM | > 100 µM | 2 µM | > 100 µM | > 100 µM | CC50 at 48 h (in vitro [2]; THLE-3 liver cells): 25.1 µM; EC50 [4, 18]: 2 µM |
| O=C(Nc1ccc(Sc2nc3ccccc3s2)cc1)c1cc(Br)cc(Br)c1 [Compound 20, N-(4-(Benzo[d]thiazol-2-ylthio)phenyl)-3,5-dibromobenzamide] | > 100 µM | > 63.1 µM | > 63 µM | > 100 µM | > 100 µM | > 100 µM | > 100 µM | > 100 µM | > 100 µM |  |  |  |  |  |  |
| COc1ccccc1C(=O)Nc1cccc(Cl)c1 [Compound 40, N-(3-Chlorophenyl)-2-methoxybenzamide] | > 100 µM | > 63.1 µM | > 63 µM | > 100 µM | > 100 µM | > 100 µM | > 100 µM | > 100 µM | > 100 µM |  |  |  |  |  |  |
| COc1ccccc1C(=O)Nc1ccccc1 [Compound 44, 2-Methoxy-N-phenylbenzamide] | > 100 µM | > 63.1 µM | > 63 µM | > 100 µM | > 100 µM | > 100 µM | > 100 µM | > 100 µM | > 100 µM |  |  |  |  |  |  |
| O=C(Nc1cccc(Cl)c1)c1cc(Br)ccc1O [Compound 11, 5-Bromo-N-(3-chlorophenyl)-2-hydroxybenzamide] |  | > 63.1 µM | > 63 µM |  |  |  |  |  |  | > 100 µM | > 100 µM | 0.537 µM | > 100 µM | > 100 µM | EC50 [4, 18]: 0.53 µM |
| O=C(Nc1ccc(Sc2nc3ccccc3s2)cc1)c1ccccc1O [Compound 8, N-(4-(Benzo[d]thiazol-2-ylthio)phenyl)-2-hydroxybenzamide] |  | > 63.1 µM | > 63 µM |  | > 100 µM | > 100 µM | 0.407 µM | > 100 µM | > 100 µM |  |  |  |  |  | EC50 ([4]; Staphylococcus aureus, MRSA, OD600 at 6-8 h, read-out: Bacterial Proliferation EC50 S. aureus Resistant): 0.41 µM |
